Experimental data taken from article PMC7216583 (Parasites & Vectors, 2020).
Counter-ions that a name gives are not always drawn. Like-named read-outs stand apart in the source and are kept apart here.

Assays:
in vitro = details: human
[1] = tested on: Toxoplasma gondii RH-2F tachyzoites; assay: microbe, parasite or virus in culture; details: 72 h; for inhibition at 5 µM: read-out: Parasite inhibition (%) Mean ± SD
[2] = read-out: Parasite inhibition (%) mean, preliminary screen, mean
[3] = read-out: Parasite inhibition (%) mean
[4] = read-out: Parasite inhibition (%) mean, preliminary screen of compound library, mean

Row | Structure (SMILES) | inhibition of growth at 5 µM [1, 2] | inhibition of growth at 5 µM [1, 4] | also measured
1 | Cc1cc(Nc2cc(N3CCN(C)CC3)nc(Sc3ccc(NC(=O)C4CC4)cc3)n2)n[nH]1 [VX-680 (MK-0457, Tozasertib)] | 70.7% | – | viability at 72 h (in vitro; Host viability (%) mean): 34.7%
2 | Oc1cc(O)c(Cl)cn1 [Gimeracil] | 70.8% | – | viability at 72 h (in vitro; Host viability (%) mean): 75.6%
3 | CC[C@]12C=CCN3CCC4(c5cc([C@@]6(C(=O)OC)C[C@H]7C[C@@H](C(C)(F)F)CN(Cc8c6[nH]c6ccccc86)C7)c(OC)cc5N(C)[C@H]4[C@@](O)(C(=O)OC)[C@@H]1OC(C)=O)C32 (stereo in doubt) [Vinflunine Tartrate] | 83.2% | – | viability (in vitro): 60.8%
4 | NCCC(O)(P(=O)(O)O)P(=O)(O)O [Pamidronate disodium, reference compound] | – | – | viability at 72 h (in vitro): 80.8%; viability at 72 h, 5 µM (in vitro): 80.8 ± 1.4%; inhibition at 5 µM [1]: 79.6 ± 1.5%
5 | COc1cc2c(Nc3ccc(Br)cc3F)ncnc2cc1OCC1CCN(C)CC1 [Vandetanib (Zactima)] | 80.2% | – | viability at 72 h (in vitro): 79.5%
6 | COc1cc2c(Nc3ccc(NC(=O)c4ccccc4)cc3)ncnc2cc1OCCCN1CCOCC1 [ZM-447439] | 70.2% | – | viability at 72 h (in vitro; Host viability (%) mean): 31.2%
7 | OCCn1cc(-c2cnc3nnn(Cc4ccc5ncccc5c4)c3n2)cn1 [PF-04217903] | – | – | viability at 72 h (in vitro): 65%; inhibition of growth at 5 µM [1, 3]: 88.6%
8 | CNC1CCCN(c2c(F)cc3c(=O)c(C(=O)O)cn(C4CC4)c3c2OC)C1 (stereo not shown) [Balofloxacin] | – | 71.8% | viability at 72 h (in vitro; Host viability (%) mean): 76.4%
9 | CN1CCC(=C2c3ccccc3C=Cc3ccccc32)CC1 [Cyproheptadine HCl, reference compound] | – | – | viability at 72 h, 5 µM (in vitro; Host viability (%) Mean ± SD): 90.6 ± 1.2%
10 | CN(C)Cc1c(C(=O)NCCOc2ccc(C(=O)NO)cc2)oc2ccccc12 [PCI-24781] | 82.7% | – | viability at 72 h (in vitro; Host viability (%) mean): 33.8%
11 | Nc1ccccc1NC(=O)c1ccc(CNC(=O)OCc2cccnc2)cc1 [Entinostat, reference compound] | – | – | viability at 72 h, 5 µM (in vitro; Host viability (%) Mean ± SD): 81.6 ± 1.5%; inhibition at 5 µM [1]: 75.7 ± 2.2%
12 | C[C@@H](Oc1cc(-c2cnn(C3CCNCC3)c2)cnc1N)c1c(Cl)ccc(F)c1Cl [Crizotinib (PF-02341066)] | 86.8% | – | viability (in vitro): 43.6%
13 | Nc1ccccc1NC(=O)c1ccc(CNc2nccc(-c3cccnc3)n2)cc1 [Mocetinostat (MGCD0103)] | 86.5% | – | viability at 72 h (in vitro; Host viability (%) mean): 80.2%
14 | C=C[C@H]1C[N@@]2CC[C@H]1C[C@H]2[C@H](O)c1ccnc2ccc(OC)cc12 [Quinine hydrochloride dihydrate] | – | 78.9% | viability (in vitro): 79.4%
15 | Nc1ccccc1NC(=O)c1ccc(CNC(=O)OCc2cccnc2)cc1 [Entinostat (MS-275, SNDX-275)] | 75.7% | – | viability at 72 h (in vitro; Host viability (%) mean): 81.6%
16 | Nc1nc2[nH]cc(CCc3ccc(C(=O)N[C@@H](CCC(=O)O)C(=O)O)cc3)c2c(=O)[nH]1 [Pemetrexed disodium, reference compound] | – | – | viability at 72 h, 5 µM (in vitro): 84.6 ± 1.5%
17 | CC1(C)CCC(CN2CCN(c3ccc(C(=O)NS(=O)(=O)c4ccc(NCC5CCOCC5)c([N+](=O)[O-])c4)c(Oc4cnc5[nH]ccc5c4)c3)CC2)=C(c2ccc(Cl)cc2)C1 [ABT-199 (GDC-0199 )] | – | 70.8% | viability at 72 h (in vitro; Host viability (%) mean): 25.4%
18 | CNC(=O)c1ccc(-c2cnc3ncc(Cc4ccc5ncccc5c4)n3n2)cc1F [INCB28060] | – | 89.8% | viability (in vitro): 46.3%
19 | C[C@]1(O)C[C@@H](c2nc(-c3ccc4ccc(-c5ccccc5)nc4c3)c3c(N)nccn32)C1 [Linsitinib (OSI-906)] | 78.8% | – | viability at 72 h (in vitro; Host viability (%) mean): 72.2%
20 | CCN1CCN(c2cc(-c3ccc(F)cc3)c3c(n2)CCCCCC3)CC1 [Blonanserin, reference compound] | – | – | viability at 72 h, 5 µM (in vitro; Host viability (%) Mean ± SD): 88.3 ± 5.9%; inhibition at 5 µM [1]: 82.1 ± 3.1%
21 | Cc1cccc(C(C)c2cnc[nH]2)c1C (stereo not shown) [Medetomidine HCl, reference compound] | – | – | viability (in vitro): 90.5%; viability at 5 µM (in vitro): 90.5 ± 4.4%; inhibition at 5 µM [1]: 70.8 ± 1.5%

Row | Structure (SMILES) | inhibition of growth at 5 µM [1, 2] | inhibition of growth at 5 µM [1, 4] | also measured
22 | Nc1ccccc1NC(=O)c1ccc(CNc2nccc(-c3cccnc3)n2)cc1 [Mocetinostat, reference compound] | – | – | viability at 72 h, 5 µM (in vitro; Host viability (%) Mean ± SD): 80.2 ± 3.8%; inhibition at 5 µM [1]: 86.5 ± 3.1%
23 | O=C(/C=C/c1cccc(S(=O)(=O)Nc2ccccc2)c1)NO [Belinostat (PXD101)] | 65.8% | – | –
24 | O=C(Nc1cccnc1)N1CCC(Cc2cccc(Oc3ccc(C(F)(F)F)cn3)c2)CC1 [PF-3845] | – | 6.7% | –
25 | CCCCOc1cc(C(=O)NCCN(CC)CC)c2ccccc2n1 [Dibucaine (Cinchocaine) HCl] | – | 8.9% | –
26 | C[C@H](N[C@@H](CCc1ccccc1)C(=O)O)C(=O)N1CCC[C@H]1C(=O)O [Enalaprilat dihydrate] | 33.9% | – | –
27 | CC1(C)CC(=O)c2c(C(F)(F)F)nn(-c3ccc(C(N)=O)c(N[C@H]4CC[C@H](O)CC4)c3)c2C1 [SNX-2112] | – | 9.9% | –
28 | CNC(=O)c1ccc(N2C(=S)N(c3cnc(C#N)c(C(F)(F)F)c3)C(=O)C23CCC3)cc1F [ARN-509] | – | 28.7% | –
29 | CCOC(=O)c1ccc(C#Cc2ccc3c(c2)C(C)(C)CCS3)nc1 [Tazarotene (Avage)] | – | -0.7% | –
30 | CN(C(=O)c1ccc(F)cc1C(F)(F)F)C1CCN(c2nnc(-c3ccnn3C)c3ccccc23)CC1 [LY2940680] | 2.1% | – | –
31 | O=C(C[S+]([O-])Cc1ccco1)NC/C=C\COc1cc(CN2CCCCC2)ccn1 (stereo not shown) [Lafutidine, reference compound] | – | – | viability at 72 h, 5 µM (in vitro; Host viability (%) Mean ± SD): 92.7 ± 5.6%; viability at 72 h (in vitro; Host viability (%) mean): 92.7%; inhibition at 5 µM [1]: 70.6 ± 2.5%
32 | COc1cc(OC)c(OC)cc1C=O [Asaraldehyde (Asaronaldehyde)] | – | 10.2% | –
33 | NC[C@H](CC(=O)O)c1ccc(Cl)cc1 [(R)-baclofen] | – | 23.1% | –
34 | C=C1[C@H](CO)[C@@H](O)C[C@@H]1n1cnc2c(=O)[nH]c(N)nc21 [Entecavir hydrate] | – | 9.8% | –
35 | C#CCN[C@@H]1CCc2ccccc21 [Rasagiline mesylate] | – | – | inhibition of growth at 5 µM [1, 3]: 13.3%
36 | CC(=O)NS(=O)(=O)c1ccc(N)cc1 [Sulfacetamide Sodium] | – | 0.9% | –
37 | COc1cc(/C=C/C(=O)N2CCN(CC(=O)N3CCCC3)CC2)cc(OC)c1OC [Cinepazide maleate] | – | 1.5% | –
38 | CCN(C)C(=O)Oc1cccc([C@H](C)N(C)C)c1 [Rivastigmine tartrate (Exelon)] | 22.8% | – | –
39 | CS(=O)(=O)CCNCc1ccc(-c2ccc3ncnc(Nc4ccc(OCc5cccc(F)c5)c(Cl)c4)c3c2)o1 [Lapatinib Ditosylate (Tykerb)] | 3.3% | – | –
40 | O=C[C@H](O)[C@@H](O)[C@H](O)[C@H](O)CO [Dextrose (D-glucose)] | – | -33.7% | –
41 | c1ccc2c(CCNc3ccc(Nc4ccncc4)cc3)c[nH]c2c1 [JNJ 26854165 (Serdemetan)] | 48.9% | – | –
42 | N[C@H](C(=O)O)[C@H](O)c1ccc(O)c(O)c1 [Droxidopa (L-DOPS)] | – | 39.8% | –

Row | Structure (SMILES) | inhibition of growth at 5 µM [1, 2] | inhibition of growth at 5 µM [1, 4] | also measured
43 | CC(C)(O)[C@H]1CC[C@@](C)([C@@H]2[C@@H](O)C[C@@]3(C)[C@@H]4C[C@H](O[C@@H]5O[C@H](CO)[C@@H](O)[C@H](O)[C@@H]5O)[C@H]5C(C)(C)[C@@H](O[C@@H]6OC[C@@H](O)[C@H](O)[C@H]6O)CC[C@@]56C[C@]46CC[C@]23C)O1 [Astragaloside A] | – | 15.5% | –
44 | CCNC(=O)[C@H]1O[C@@H](n2cnc3c(N)nc(NCCc4ccc(CCC(=O)O)cc4)nc32)[C@@H](O)[C@@H]1O [CGS 21680 HCl] | 0.9% | – | –
45 | COc1ccc2[nH]c([S+]([O-])Cc3ncc(C)c(OC)c3C)nc2c1 (stereo not shown) [Esomeprazole magnesium (Nexium)] | 1.6% | – | –
46 | O=C(NOC[C@H](O)CO)c1ccc(F)c(F)c1Nc1ccc(I)cc1F [PD0325901] | -6.9% | – | –
47 | CC(C)c1cc(C(C)C)c(CC(=O)NS(=O)(=O)Oc2c(C(C)C)cccc2C(C)C)c(C(C)C)c1 [Avasimibe (CI-1011)] | 5.1% | – | –
48 | CN1CCC(=C2c3ccccc3C=Cc3ccccc32)CC1 [Cyproheptadine HCl (Periactin)] | – | – | viability at 72 h (in vitro; uninfected human foreskin fibroblasts (HFFs), Host viability (%) mean, preliminary screen, mean): 90.6%
49 | O=C1c2ccccc2C(=O)C1c1ccccc1 [Phenindione (Rectadione)] | – | -1.7% | –
50 | CC(C(=O)[O][Ca][O]C(=O)C(C)c1cccc(Oc2ccccc2)c1)c1cccc(Oc2ccccc2)c1 (stereo not shown) [Fenoprofen calcium] | – | 27.4% | –
51 | Cc1cnc(NC(=O)Nc2cc(Br)c(C)cc2OC[C@@H]2CNCCO2)cn1 [LY2603618 (IC-83)] | – | 22.7% | –
52 | C[C@@H](Oc1cc(-n2cnc3ccc(CN4CCN(C)CC4)cc32)sc1C(N)=O)c1ccccc1C(F)(F)F [GSK461364] | 6.6% | – | –
53 | CN[C@@H]1C[C@@H](N)[C@H](O)[C@@H](O[C@@H]2O[C@H](CO)[C@H](O)[C@@H]3OC4(O[C@@H]23)O[C@H]([C@@H](N)CO)[C@H](O)[C@H](O)[C@@H]4O)[C@@H]1O (stereo partly shown) [Hygromycin B] | – | 40.4% | –
54 | CC(C(=O)O)c1ccc2c(c1)CC(=O)c1ccccc1S2 (stereo not shown) [Zaltoprofen] | – | 3.3% | –
55 | O=C1NC(=O)/C(=C/c2ccc3c(c2)OC(F)(F)O3)S1 [AS-604850] | – | 0.8% | –
56 | CN(C)/N=N/c1[nH]cnc1C(N)=O [Dacarbazine (DTIC-Dome)] | 5.8% | – | –
57 | CO/N=C(\C(=O)N[C@@H]1C(=O)N2C(C(=O)OCOC(=O)C(C)(C)C)=C(/C=C\c3scnc3C)CS[C@H]12)c1csc(N)n1 [Cefditoren pivoxil] | – | 0.2% | –
58 | Nc1nc(N)c2nc(-c3cccc(O)c3)c(-c3cccc(O)c3)nc2n1 [TG100-115] | 9.5% | – | –
59 | CC(C)[C@H](N)C(=O)OCCOCn1cnc2c(=O)[nH]c(N)nc21 [Valaciclovir HCl] | – | 0.1% | –
60 | O=C(NC[C@H](O)CO)c1ccncc1Nc1ccc(I)cc1F [AS703026 (pimasertib)] | -20.8% | – | –
61 | COc1cc(OC)c(/C=C/S(=O)(=O)Cc2ccc(OC)c(NCC(=O)O)c2)c(OC)c1 [Rigosertib (ON-01910)] | 0.1% | – | –
